Experimental data published in US7022663B2 (Yeda Research and Development Co., Ltd., priority 2000, dated 2006).
Where “and” joins values, the source holds several entries; their conditions need not be identical. Identical values can stand only once. Like-named read-outs stand apart in the source and are kept apart here.

How the values were obtained:
EAE [1] = conditions: monkey, in vivo
IL-2 [2] = conditions: oral, enteric coated capsules, MS patients
IFN-γ = conditions: cited from earlier work
[3] = system: experimental allergic encephalomyelitis (EAE); conditions: cited from earlier work
IL-2 [4] = conditions: cited from earlier work
IL-10 = conditions: oral, enteric coated capsules, MS patients
Chronic-relapsing EAE = system: Chronic-relapsing EAE
Excerpt: Chronic—relapsing EAE was induced in female Biozzi mice by the injection of mouse spinal cord homogenate (MSCH) in CFA, following by re-injection of the encephalitogen one week later, in the same manner.

[5] = system: Experimental allergic Encephalomyelitis (EAE)
Procedure: Rhesus monkeys were fed with the enteric coated capsules. 5 feedings before disease induction and 5 feedings after disease induction, on alternate days. Experimental allergic Encephalomyelitis (EAE) was induced by injecting 8 mg myelin basic protein (MBP) in complete Freund's adjuvant (CFA) intra-dermally into the leg. EAE symptoms were evaluated on the following scale:
Evaluation of EAE clinical signs

EAE [6] = conditions: enteric-coated tablets
Excerpt: As in Example 3B, observation began on day 8 and continued until the conclusion of the experiment, which, in this case, was day 57. […] EAE-related neurological signs appeared between day 14 and 54 as specified in Table 9. Animals were sacrificed when they reached score 4.

Th2 = conditions: cited from earlier work
T cell = conditions: Aharoni et al. 1997; cited from earlier work
[7] = system: exacerbating-remitting multiple sclerosis; conditions: daily subcutaneous injections, phase III; cited from earlier work
EAE [8] = system: EAE
Excerpt: EAE was induced in Lewis rats by the injection of guinea pig spinal cord homogenate in CFA into the hind legs.

[9] = system: relapsing-remitting form of EAE; experiment: Induction of relapsing-remitting EAE in Cynamologus monkeys by MBP in CFA; format: in vivo
Procedure: A relapsing-remitting form of EAE was induced by the injection of emulsified MBP in CFA containing 3 mg/ml of Mycobacterium Tuberculosis (MT), intradermally into right & left footpads.
Observation was initiated on day 8.

[10] = oral solution daily from day 16
[11] = all dose groups, daily gavage of solution

## L-glutamic acid polymer with L-alanine, L-lysine and L-tyrosine, acetate (salt) [Copolymer 1]
EAE [1]
  Daily Clinical Score: 2
  Incidence: 3/3 and 1/3
  Mean Disease Onset Day: 14.33 and 18.33 and 23
  most effective dosage: 10 mg
  pattern of disease compared with placebo group: no obvious improvement
IL-2 [2]
  change of IL-2: decrease
IFN-γ
  pro-GVHD IFN-γ cytokine secretion: prevented
[3]; induced by various encephalitogens including MSCH, MBP, PLP, MOG
  effect on EAE: suppress
[3]; injected subcutaneously, intra-peritoneally, intravenously or intramuscularly
  activity by injection: active
IL-2 [4]
  pro-GVHD IL-2 cytokine secretion: prevented
IL-10
  change of IL-10: increase
Chronic-relapsing EAE; oral solution 0.5, 2.5, 12.5 mg/kg/day from day 16, dose-dependent
  EAE clinical symptoms of the second relapse: reduced
Chronic-relapsing EAE; [10]
  incidence of second relapse, severity of symptoms, duration of relapse: suppressive effect was demonstrated in all parameters checked
  most effective dose: 12.5 mg/kg
[5]; 20 mg in enteric coated capsules, 5 feedings before and 5 after induction on alternate days, first study (FIG. 1), one animal
  signs of EAE: did not develop any signs of disease till day 60
[5]; animal first treated with 1 mg capsules, then 20 mg enteric coated capsules
  course of EAE upon treatment with 20 mg capsules: healed completely
[5]; second study (FIG. 2), capsules not gastro-protective (opened in the stomach)
  outcome of EAE: died from the disease
[5]; second study (FIG. 2), enteric coated capsules 1, 10 and 20 mg
  protection from EAE: fully protected from EAE
EAE [6]; 10 mg group
  Incidence: 3/3
  Mean Disease Onset Day: 30
  Mean Maximal Score: 2.33
  Mean Score: 1.3 ± 0.56
EAE [6]; 20 mg group
  Incidence: 3/3
  Mean Disease Onset Day: 30
  Mean Maximal Score: 2.33
  Mean Score: 1.6 ± 0.53
EAE [6]; 10 and 20 mg
  effect on incidence of the disease: does not change the incidence of the disease
EAE [6]; 10 and 20 mg tested, confirms Example 3B
  most effective dosage: 10 mg
Th2
  beneficial Th2 anti-inflammatory response: induced
T cell
  T cell proliferation in response to host cell: inhibited
[7]
  progression of disability: slow
  relapse rate: reduce
EAE [8]; [11]
  % of sick rats: reduced
  disease duration: reduced
  disease onset: delayed
  severity of disease (mean score and mean maximal score): reduced
EAE [8]; solution 0.1-10 mg/kg by gavage every day from induction to day 24
  effect on EAE: inhibited

B1: MBP: myelin basic protein, natural component of the myelin sheath, injected in CFA to induce EAE (protein, UniProt P02686 1-304, looked up)
Myelin basic protein: MGNHAGKRELNAEKASTNSETNRGESEKKRNLGELSRTTSEDNEVFGEADANQNNGTSSQDTAVTDSKRTADPKNAWQDAHPADPGSRPHLIRLFSRDAPGREDNTFKDRPSESDELQTIQEDSAATSESLDVMASQKRPSQRHGSKYLATASTMDHARHGFLPRHRDTGILDSIGRFFGGDRGAPKRGSGKDSHHPARTAHYGSLPQKSHGRTQDENPVVHFFKNIVTPRTPPPSQGKGRGLSLSRFSWGAEGQRPGFGYGGRASDYKSAHKGFKGVDAQGTLSKIFKLGGRDSRSGSPMARR
[9]; Female Z-920, dose 2.5 mg, columns = days 14-32 after induction
  Daily Clinical Score: 3 and 5
[9]; Male Z-701, dose 10 mg, columns = days 14-32
  Daily Clinical Score: 0
[9]; Male Z-1669, dose 5 mg, columns = days 14-32
  Daily Clinical Score: 0
